We go through seven compounds from patent publication US12274704B2, “9,11-secosteroids and the use of 9,11-secosteroids in preparing pharmaceutical compositions for inhibiting inflammation” (Chang Gung University of Science and Technology, priority 2020, dated 2025).

The test system of test [1] is fMLF/CB-induced human neutrophils. The test can be described thus: Elastase release in fMLF/CB-induced human neutrophils. It counts as cell-based. As to conditions: for IC50: mean ± S.E.M. (n = 3 or 4); for inhibition at 10 µM / Elastase Release Inhibition (%): at 10 μM concentration, mean ± S.E.M. As for the experimental part: (§1) Blood samples were collected from healthy adult donors (20-32 years) via venipuncture in accordance with the standard protocol approved by the local institutional review board. Human neutrophils were isolated from peripheral blood through dextran sedimentation, centrifugation in a Ficoll-Hypaque gradient, and hypotonic lysis of red blood cells.
(§2) In accordance with the above-mentioned protocol, assays were performed to measure superoxide anion generation based on the superoxide dismutase-inhibitable reduction of ferricytochrome c; methoxy-succinyl-alanyl-alanyl-prolyl-valine-p-nitroanilide (MeO-Suc-Ala-Ala-Pro-Val-p-nitroanilide) was used as the enzyme substrate for the detection of elastase release.

The test system is the same in test [2]. Nature of the test: Superoxide anion generation in fMLF/CB-induced human neutrophils. The test is classed as cell-based. The settings on record: for IC50: mean ± S.E.M. (n = 3 or 4); for inhibition at 10 µM / Superoxide Anion Inhibition (%): at 10 μM concentration, mean ± S.E.M. The method, then: as §1, §2
Another test has as its target T1, FPR1 receptor (Homo sapiens, UniProt P21462).
T1 construct: endogenous in cells; host or cells: human neutrophils
T1 sequence (P21462 1-350): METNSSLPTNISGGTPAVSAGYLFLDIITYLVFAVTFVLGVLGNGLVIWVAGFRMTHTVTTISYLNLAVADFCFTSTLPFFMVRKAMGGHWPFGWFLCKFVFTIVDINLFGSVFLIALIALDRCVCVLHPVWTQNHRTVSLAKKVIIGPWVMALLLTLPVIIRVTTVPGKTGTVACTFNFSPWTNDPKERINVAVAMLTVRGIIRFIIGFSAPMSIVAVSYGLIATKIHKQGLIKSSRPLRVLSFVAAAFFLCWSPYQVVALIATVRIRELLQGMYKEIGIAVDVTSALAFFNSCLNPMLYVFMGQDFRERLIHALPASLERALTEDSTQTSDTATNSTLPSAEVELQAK
Nature of the test: FPR1 receptor binding assay (fNLFNYK, flow cytometry) in human neutrophils. The settings on record: 10 μM test substance, fNLFNYK 2 nM. The method, then: Receptor binding assays of the present invention were performed via FACScan™ flow Cytometer analysis of N-formyl-Nle-Leu-Phe-Nle-Tyr-Lys-fluorescein (fNLFNYK; a fluorescent analog of N-formylmethionyl-leucyl-phenylalanine (fMLF)) binding to receptor of human neutrophils; The neutrophils were preincubated with test compounds at 4° C. for 5 min and then labelled with fNLFNYK for 30 min, then the cells were immediately analyzed via flow cytometry.
The receptor-binding assay is based on the binding between N-formyl-Nle-Leu-Phe-Nle-Tyr-Lys-fluorescein (fNLFNYK) and the […] receptor of human neutrophil.
A general note: In flow cytometry, cells or beads pass a laser one at a time.

Where only a bound is given, the exact number is not on record here.

Consider `C=C(CC[C@@H](C)C1CCC([C@H]2CC=C3C[C@@H](O)CC[C@]3(C)C2=O)[C@]1(C)CCO)C(C)C` (stereo partly drawn) [Compound 3, 8αH-3β,11-dihydroxy-24-methylene-9,11-secocholest-5-en-9-one], for which the IC50 (in general, the concentration that gives 50% inhibition) in test [1] (Homo sapiens, Neutrophil) is 1.63 to 8.07 µM; in test [1], 3.12 ± 0.07 µM; in test [2] (Homo sapiens, Neutrophil), 1.63 to 8.07 µM; in test [2] it was 1.97 ± 0.12 µM. Further, the inhibition – broadly, the change of the read-out against control, counted positive when it falls – at 10 µM in test [1] (Neutrophil) is 112 ± 5.01%; in test [2] (Neutrophil), 90.5 ± 2.44%.

As to `C=C(CC[C@@H](C)C1CCC([C@@H]2CC=C3C[C@@H](O)CC[C@]3(C)C2=O)[C@]1(C)CCO)C(C)C` (stereo partly drawn) [Compound 4, 8βH-3β,11-dihydroxy-24-methylene-9,11-secocholest-5-en-9-one], the IC50 was 1.63 to 8.07 µM in test [1] (Homo sapiens, Neutrophil); 1.63 ± 0.15 µM in test [1]; 1.63 to 8.07 µM in test [2] (Homo sapiens, Neutrophil); 2.96 ± 0.91 µM in test [2]. The inhibition at 10 µM in test [1] (Neutrophil) was 93.7 ± 1.23%; in test [2] (Neutrophil), 91.1 ± 4.51%.

As for `CC(C)[C@@H](C)[C@@]1(C)C[C@@H]1[C@@H](C)[C@H]1CC[C@@H]([C@@H]2CC=C3C[C@@H](O)CC[C@]3(C)C2=O)[C@]1(C)CCO` [Compound 7, 3β,11-dihydroxy-9,11-secogorgost-5-en-9-one], in test [1], the “Elastase Release Inhibition (%)” value is recorded as 18.87 ± 3.86 % and the IC50 is above 10 µM. For the same compound, in test [2], the “Superoxide Anion Inhibition (%)” value is on record as 10.29 ± 5.42 % and the IC50 is above 10 µM.

Regarding sinleptosterol B [Compound 2], in test [1], the “Elastase Release Inhibition (%)” value was found to be 105.09 ± 5.25 % and the IC50 came out at 4.29 ± 0.25 µM. Moreover, in test [2], the “Superoxide Anion Inhibition (%)” value stood at 76.30 ± 5.09 % and half-maximal inhibition (IC50) required 4.68 ± 0.57 µM.

For `CC(C)[C@@H](C)CC[C@@H](C)[C@H]1CC[C@@H]([C@@H]2CC=C3C[C@@H](O)CC[C@]3(C)C2=O)[C@]1(C)CCO` [Compound 6, (24S)-3β,11-dihydroxy-24-methyl-9,11-secocholest-5-en-9-one], in test [1], the “Elastase Release Inhibition (%)” value is listed as 25.38 ± 6.68 % and the IC50 is above 10 µM. Besides, in test [2], the “Superoxide Anion Inhibition (%)” value worked out at 60.51 ± 4.06 % and 4.09 ± 0.5 µM corresponded to half-maximal inhibition (IC50).

As for leptosterol A [Compound 5], in test [1], the “Elastase Release Inhibition (%)” value came to 86.32 ± 2.91 % and the IC50 worked out at 4.73 ± 0.57 µM. In test [2], the “Superoxide Anion Inhibition (%)” value was 57.93 ± 2.30 % and it took 8.07 ± 0.53 µM to reach half-maximal inhibition (IC50).

As for sinleptosterol A [Compound 1], the “binding to FPR1 receptor (inhibition of fNLFNYK binding)” value at FPR1 receptor is given as “low affinity”. For the same compound, in test [1], the “Elastase Release Inhibition (%)” value was determined as 65.04 ± 2.76 % and the midpoint of inhibition, the IC50, lay at 7.57 ± 0.4 µM. In addition, in test [2], the “Superoxide Anion Inhibition (%)” value amounted to 64.76 ± 3.42 % and the IC50 was found to be 7.07 ± 0.52 µM.
